Experimental data: the NIST ThermoML archive (doi:10.1016/j.fluid.2010.02.030)
Numbers after ± are expanded uncertainties.

Conditions: Liquid, Ebulliometric method (Recirculating still)

vapor or sublimation pressure (383.15 K) [kPa]	vapor or sublimation pressure (387.74 K) [kPa]	vapor or sublimation pressure (400.11 K) [kPa]	vapor or sublimation pressure (408.87 K) [kPa]	vapor or sublimation pressure (416.75 K) [kPa]	vapor or sublimation pressure (422.84 K) [kPa]	vapor or sublimation pressure (428.53 K) [kPa]	vapor or sublimation pressure (433.42 K) [kPa]	vapor or sublimation pressure (437.83 K) [kPa]	vapor or sublimation pressure (442.22 K) [kPa]	vapor or sublimation pressure (328.08 K) [kPa]	vapor or sublimation pressure (336.1 K) [kPa]	vapor or sublimation pressure (343.41 K) [kPa]	vapor or sublimation pressure (350.44 K) [kPa]	vapor or sublimation pressure (355.65 K) [kPa]	vapor or sublimation pressure (360.57 K) [kPa]	vapor or sublimation pressure (364.39 K) [kPa]	vapor or sublimation pressure (368.05 K) [kPa]	vapor or sublimation pressure (371.04 K) [kPa]	Structure (SMILES)
16.9 ± 0.4	20.1 ± 0.4	30.3 ± 0.4	39.8 ± 0.4	50.3 ± 0.4	60 ± 0.4	70.3 ± 0.4	80.3 ± 0.4	90.4 ± 0.4	101.4 ± 0.4	–	–	–	–	–	–	–	–	–	Cc1ccc(C)c(C)c1 [1,2,4-trimethylbenzene]
–	–	–	–	–	–	–	–	–	–	23.1 ± 0.4	31.4 ± 0.4	40.9 ± 0.4	52.1 ± 0.4	61.9 ± 0.4	72.6 ± 0.4	81.9 ± 0.4	91.6 ± 0.4	100.5 ± 0.5	CCCCS [1-butanethiol]
